Experimental data taken from patent publication US11834440B2, “Beta-lactam derivatives for the treatment of diseases” (Insilico Medicine IP Limited, priority 2021, dated 2023).

molecular target: QPCTL (Homo sapiens (Human), UniProt Q9NXS2); assay: QPCTL inhibition, SensoLyte Green Glutaminyl Cyclase Activity Assay; format: biochemical; details: 0.8 nM 2x enzyme solution, 45 min at 37° C., 50 mM Tris pH 8.0, 1% DMSO
Experimental: Preparation of working solution: 2×Glutaminyl Cyclase substrate was diluted in assay buffer to […]. 2×enzyme solution and QPCTL was diluted in assay buffer to 0.8 nM. Glutaminyl Cyclase Developer was diluted in assay buffer to 1×(containing 10 mM 1-Benzyl-Imidazole). Serial dilution of test compounds was performed in DMSO. The final DMSO concentration in 100 μl reaction was 1%. The assay buffer was 50 mM Tris, pH 8.0, 0.01% BSA.
Procedure: 50 μL of 2×Glutaminyl Cyclase substrate solution was added into the assay plate followed by 50 μL of 2×enzyme solution. The plate was centrifuged for 1 min at 1000 rmp. Next the plate was incubated for 45 minutes at 37° C. This was followed by the additional of 50 μL of the prepared Glutaminyl Cyclase developer and incubated for additional 30 min at 37° C. Results were read on SpectraMax Paradigm detecting with emission at Ex/Em=490 nm/520 nm.
A Z′ value was calculated for each assay plate. The Z′ value must be >0.5 or the plate was disqualified. […] Results were calculated using GraphPad Prism 7 software is used for IC50 determination.

QPCTL, sequence (Q9NXS2 whole entry, species assumed): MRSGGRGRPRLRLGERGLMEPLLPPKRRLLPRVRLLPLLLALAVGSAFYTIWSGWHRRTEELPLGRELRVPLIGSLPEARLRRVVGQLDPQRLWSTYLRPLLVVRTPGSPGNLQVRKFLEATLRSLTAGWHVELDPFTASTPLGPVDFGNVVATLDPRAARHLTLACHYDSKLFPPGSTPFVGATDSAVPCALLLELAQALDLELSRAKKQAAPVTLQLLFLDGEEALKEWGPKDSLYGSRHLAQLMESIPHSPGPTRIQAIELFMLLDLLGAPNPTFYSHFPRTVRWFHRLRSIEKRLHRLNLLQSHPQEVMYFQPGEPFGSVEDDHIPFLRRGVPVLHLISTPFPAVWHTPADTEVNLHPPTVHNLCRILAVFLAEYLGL

| IC50 | SMILES |
| --- | --- |
| > 1000 nM | CC1(C)C(=O)N(c2ccc3[nH]cnc3c2)C1c1c(F)cc(OCCC(F)F)cc1F (racemic) [Compound 2, 1-(1H-benzo[d]imidazol-5-yl)-4-(4-(3,3-difluoropropoxy)-2,6-difluorophenyl)-3,3-dimethylazetidin-2-one] |
| 25 to 1000 nM | O=C1N(c2ccc3[nH]cnc3c2)C(c2c(F)cc(OCCC(F)F)cc2F)C12CCC2 (racemic) [Compound 3, 2-(1H-benzo[d]imidazol-5-yl)-3-(4-(3,3-difluoropropoxy)-2,6-difluorophenyl)-2-azaspiro[3.3]heptan-1-one] |
| 2 to 25 nM | CN1CCN(c2cc(F)c(C3CC(=O)N3c3ccc4[nH]cnc4c3)c(F)c2)CC1 (racemic) [Compound 4, 1-(1H-benzo[d]imidazol-5-yl)-4-(2,6-difluoro-4-(4-methylpiperazin-1-yl)phenyl)azetidin-2-one] |
| 2 to 25 nM | CC1C(=O)N(c2ccc3[nH]cnc3c2)C1c1c(F)cc(OCCC(F)F)cc1F (racemic) [Compound 7, 1-(1H-benzo[d]imidazol-5-yl)-4-(4-(3,3-difluoropropoxy)-2,6-difluorophenyl)-3-methylazetidin-2-one] |
| 2 to 25 nM | O=C1C(O)C(c2c(F)cc(OCCC(F)F)cc2F)N1c1ccc2[nH]cnc2c1 (racemic) [Compound 8, (cis and racemic)-1-(1H-benzo[d]imidazol-5-yl)-4-(4-(3,3-difluoropropoxy)-2,6-difluorophenyl)-3-hydroxyazetidin-2-one] |
| 25 to 1000 nM | O=C1[C@@H](O)[C@H](c2c(F)cc(OCCC(F)F)cc2F)N1c1ccc2[nH]cnc2c1 (racemic) [Compound 8TR, (trans and racemic)-1-(1H-benzo[d]imidazol-5-yl)-4-(4-(3,3-difluoropropoxy)-2,6-difluorophenyl)-3-hydroxyazetidin-2-one] |
| 25 to 1000 nM | Cn1cc(-c2cc(F)c(C3CC(=O)N3c3ccc4[nH]cnc4c3)c(F)c2)cn1 (racemic) [Compound 9, 1-(1H-benzo[d]imidazol-5-yl)-4-(2,6-difluoro-4-(1-methyl-1H-pyrazol-4-yl)phenyl)azetidin-2-one] |
| 2 to 25 nM | Cc1nc(-c2cc(F)c([C@H]3[C@@H](C)C(=O)N3c3ccc4[nH]cnc4c3)c(F)c2)cs1 (racemic) [Compound 10CR, (cis and racemic)-1-(1H-benzo[d]imidazol-5-yl)-4-(2,6-difluoro-4-(2-methylthiazol-4-yl)phenyl)-3-methylazetidin-2-one] |
| 2 to 25 nM | Cc1ncc(-c2cc(F)c([C@H]3[C@@H](C)C(=O)N3c3ccc4[nH]cnc4c3)c(F)c2)s1 (racemic) [Compound 11CR, (cis and racemic)-1-(1H-benzo[d]imidazol-5-yl)-4-(2,6-difluoro-4-(2-methylthiazol-5-yl)phenyl)-3-methylazetidin-2-one] |
| 2 to 25 nM | C[C@H]1C(=O)N(c2ccc3[nH]cnc3c2)[C@H]1c1c(F)cc(N2CCC(F)(F)C2)cc1F (racemic) [Compound 12CR, (cis and racemic)-1-(1H-benzo[d]imidazol-5-yl)-4-(4-(3,3-difluoropyrrolidin-1-yl)-2,6-difluorophenyl)-3-methylazetidin-2-one] |
| 2 to 25 nM | CC1C(=O)N(c2ccc3[nH]cnc3c2)C1c1c(F)cc(-c2cnn(C(F)(F)F)c2)cc1F (racemic) [Compound 14, (cis and racemic)-1-(1H-benzo[d]imidazol-5-yl)-4-(2,6-difluoro-4-(1-(trifluoromethyl)-1H-pyrazol-4-yl)phenyl)-3-methyl azetidin-2-one] |
| < 2 nM | O=C1[C@H](O)[C@H](c2c(F)cc(-c3cnn(C(F)(F)F)c3)cc2F)N1c1ccc2[nH]cnc2c1 (racemic) [Compound 16CR] |
| 25 to 1000 nM | O=C1[C@@H](O)[C@H](c2c(F)cc(-c3cnn(C(F)(F)F)c3)cc2F)N1c1ccc2[nH]cnc2c1 (racemic) [Compound 16TR] |
| < 2 nM | C=C1C(=O)N(c2ccc3[nH]cnc3c2)C1c1c(F)cc(OCCC(F)F)cc1F (racemic) [Compound 22, (racemic)-1-(1H-benzo[d]imidazol-5-yl)-4-(4-(3,3-difluoropropoxy)-2,6-difluorophenyl)-3-methyleneazetidin-2-one] |
| 2 to 25 nM | C[C@H]1C(=O)N(c2ccc3[nH]cnc3c2)[C@H]1c1ccc(OCCC(F)F)nc1 (racemic) [Compound 23CR, (cis and racemic)-1-(1H-benzo[d]imidazol-5-yl)-4-(6-(3,3-difluoropropoxy)pyridin-3-yl)-3-methylazetidin-2-one] |
| < 2 nM | O=C1[C@H](O)[C@H](c2c(F)cc(-c3cnn(C(F)F)c3)cc2F)N1c1ccc2[nH]cnc2c1 (racemic) [Compound 25CR] |
| 2 to 25 nM | O=C1[C@@H](O)[C@H](c2c(F)cc(-c3cnn(C(F)F)c3)cc2F)N1c1ccc2[nH]cnc2c1 (racemic) [Compound 25TR] |
| 2 to 25 nM | C[C@H]1C(=O)N(c2ccc3[nH]cnc3c2)[C@H]1c1c(F)cc(-n2cc(C(F)(F)F)cn2)cc1F (racemic) [Compound 28CR, (cis and racemic)-1-(1H-benzo[d]imidazol-5-yl)-4-(2,6-difluoro-4-(4-(trifluoromethyl)-1H-pyrazol-1-yl)phenyl)-3-methylazetidin-2-one] |
| 2 to 25 nM | C[C@@H]1C(=O)N(c2ccc3[nH]cnc3c2)[C@H]1c1c(F)cc(-n2cc(C(F)(F)F)cn2)cc1F (racemic) [Compound 28TR, (trans and racemic)-1-(1H-benzo[d]imidazol-5-yl)-4-(2,6-difluoro-4-(4-(trifluoromethyl)-1H-pyrazol-1-yl)phenyl)-3-methylazetidin-2-one] |
| < 2 nM | C[C@H]1C(=O)N(c2ccc3[nH]cnc3c2)[C@H]1c1c(F)cc(OCCC2CC2)cc1F (racemic) [Compound 34CR, (Cis and racemic)-1-(1H-benzo[d]imidazol-5-yl)-4-(4-(2-cyclopropylethoxy)-2,6-difluorophenyl)-3-methylazetidin-2-one] |
| 25 to 1000 nM | C[C@@H]1C(=O)N(c2ccc3[nH]cnc3c2)[C@H]1c1c(F)cc(OCCC2CC2)cc1F (racemic) [Compound 34TR, (Trans and racemic)-1-(1H-benzo[d]imidazol-5-yl)-4-(4-(2-cyclopropylethoxy)-2,6-difluorophenyl)-3-methylazetidin-2-one] |
| 25 to 1000 nM | C[C@@H]1C(=O)N(c2ccc3[nH]cnc3c2)[C@H]1c1c(F)cc(OCCC(F)F)cc1F (single isomer, unassigned) [Compound 7A] |
| < 2 nM | C[C@H]1C(=O)N(c2ccc3[nH]cnc3c2)[C@H]1c1c(F)cc(OCCC(F)F)cc1F (single isomer, unassigned) [Compound 7B] |
| > 1000 nM | O=C1[C@@H](O)[C@@H](c2c(F)cc(OCCC(F)F)cc2F)N1c1ccc2[nH]cnc2c1 (single isomer, unassigned) [Compound 8A] |
| < 2 nM | O=C1[C@H](O)[C@H](c2c(F)cc(OCCC(F)F)cc2F)N1c1ccc2[nH]cnc2c1 (single isomer, unassigned) [Compound 8B] |
| > 1000 nM | C[C@@H]1C(=O)N(c2ccc3[nH]cnc3c2)[C@@H]1c1c(F)cc(-c2cnn(C)c2)cc1F (single isomer, unassigned) [Compound 13A] |
| 2 to 25 nM | C[C@H]1C(=O)N(c2ccc3[nH]cnc3c2)[C@H]1c1c(F)cc(-c2cnn(C)c2)cc1F (single isomer, unassigned) [Compound 13B] |
